From paper PMC8302244 (CPT: Pharmacometrics & Systems Pharmacology, 2021)

Experiments:
[1] = cited from earlier work
CYP3A4 mRNA = settings: primary human hepatocytes, up to 300 μM; ref unpublished data on file; cited from earlier work
[2] = Semimechanistic population PK model
[3] = Predicted individual exposure metrics
[4] = system: human cell lines derived from NC, SCLC, CRPC, TNBC, ER+BC and GIST; settings: cited from earlier work
[5] = final model Run 32, power estimate of covariate effect
[6] = Besylate substudy—80 mg q.d., W1D1
[7] = Besylate substudy—80 mg q.d., W3D4

COc1ccc2c(c1)C(c1ccc(Cl)cc1)=N[C@@H](CC(N)=O)c1nnc(C)n1-2 [GSK3529246]
free fraction in plasma [1]: approximately 0.2
donors with concentration‐dependent increase in CYP3A4 mRNA (CYP3A4 mRNA): one donor
GSK3529246 central volume of distribution mV1/F ([2]; final model Run 32): 62.1 L
GSK3529246 clearance mCL/F ([2]; final model Run 32): 12.8 L/h
GSK3529246 transit rate mka ([2]; final model Run 32): 11.5 h⁻¹
AST effect on mCL/F [2, 5]: −0.194
Weight effect on V1/F and mV1/F [2, 5]: 0.717
IIV on GSK3529246 transit rate ωmka2 ([2]; final model Run 32, variance): 0.488
AUC0–24 Mean [3, 6]: 3110.0 ng/mL
Cmax Mean [3, 6]: 316.0 ng/mL
Cmin Mean [3, 6]: 34.7 ng/mL
AUC0–24 Mean [3, 7]: 5890.0 ng/mL
Cmax Mean [3, 7]: 469.0 ng/mL
Cmin Mean [3, 7]: 89.6 ng/mL
AUC0–24 Mean ([3]; Part 1—40 mg b.i.d., W1D1): 1860.0 ng/mL
Cmax Mean ([3]; Part 1—40 mg b.i.d., W1D1): 222.0 ng/mL
Cmin Mean ([3]; Part 1—40 mg b.i.d., W1D1): 94.5 ng/mL
AUC0–24 Mean ([3]; Part 1—40 mg b.i.d., W3D4): 5810.0 ng/mL
Cmax Mean ([3]; Part 1—40 mg b.i.d., W3D4): 365.0 ng/mL
Cmin Mean ([3]; Part 1—40 mg b.i.d., W3D4): 128.0 ng/mL
AUC0–24 Mean ([3]; Part 1—60 mg q.d., W1D1): 2640.0 ng/mL
Cmax Mean ([3]; Part 1—60 mg q.d., W1D1): 296.0 ng/mL
Cmin Mean ([3]; Part 1—60 mg q.d., W1D1): 21.3 ng/mL
AUC0–24 Mean ([3]; Part 1—60 mg q.d., W3D4): 4240.0 ng/mL
Cmax Mean ([3]; Part 1—60 mg q.d., W3D4): 379.0 ng/mL
Cmin Mean ([3]; Part 1—60 mg q.d., W3D4): 57.7 ng/mL
AUC0–24 Mean ([3]; Part 1—80 mg q.d., W1D1): 3230.0 ng/mL
Cmax Mean ([3]; Part 1—80 mg q.d., W1D1): 355.0 ng/mL
Cmin Mean ([3]; Part 1—80 mg q.d., W1D1): 65.8 ng/mL
AUC0–24 Mean ([3]; Part 1—80 mg q.d., W3D4): 4730.0 ng/mL
Cmax Mean ([3]; Part 1—80 mg q.d., W3D4): 448.0 ng/mL
Cmin Mean ([3]; Part 1—80 mg q.d., W3D4): 66.1 ng/mL
AUC0–24 Mean ([3]; Part 1—100 mg q.d., W1D1): 3910.0 ng/mL
Cmax Mean ([3]; Part 1—100 mg q.d., W1D1): 383.0 ng/mL
Cmin Mean ([3]; Part 1—100 mg q.d., W1D1): 46.8 ng/mL
AUC0–24 Mean ([3]; Part 1—100 mg q.d., W3D4): 6970.0 ng/mL
Cmax Mean ([3]; Part 1—100 mg q.d., W3D4): 567.0 ng/mL
Cmin Mean ([3]; Part 1—100 mg q.d., W3D4): 120.0 ng/mL
AUC0–24 Mean ([3]; Part 2—75 mg q.d., W1D1): 2720.0 ng/mL
Cmax Mean ([3]; Part 2—75 mg q.d., W1D1): 325.0 ng/mL
Cmin Mean ([3]; Part 2—75 mg q.d., W1D1): 57.5 ng/mL
AUC0–24 Mean ([3]; Part 2—75 mg q.d., W3D4): 5010.0 ng/mL
Cmax Mean ([3]; Part 2—75 mg q.d., W3D4): 431.0 ng/mL
Cmin Mean ([3]; Part 2—75 mg q.d., W3D4): 82.7 ng/mL

CCNC(=O)C[C@@H]1N=C(c2ccc(Cl)cc2)c2cc(OC)ccc2-n2c(C)nnc21 [Molibresib]
proliferation of human cancer cell lines [4]: inhibits the proliferation
